In general, IC50 refers to the point on the concentration scale where inhibition reaches its midpoint. The Ki is the equilibrium dissociation constant of an inhibitor or competing ligand from its target. As a reminder, the fraction unbound is the share of the substance not bound to proteins or other matrix. Read a low fraction unbound as extensive binding.

The target of one data set is Cav1.2 (Homo sapiens, UniProt Q13936). The experiment in a line: Global Counterscreen Cav1.2. The text has this:
(§1) Supplement KCHL_A_2122309_SM6747.docx, table 1 | column: SSI-5; SSI-3; SSI-4; SSI-1; SSI-6

Data set [1] deals with T1, Nav1.6 (Homo sapiens, UniProt Q9UQD0). The data set can be described thus: PX Nav1.6 IC50 (supplement). It is filed as cell-based. Details: expressed in transfected cells; host or cells: HEK cells. The method, then:
Sodium currents were recorded from recombinant Human Embryonic Kidney 293 cell lines stably overexpressing the respective sodium channel type (NaV1.2, 1.5, 1.4, 1.6, 1.7). Recording solutions were comprised of the following (in mM): Internal solution: 30 CsCl, 5 HEPES, 10 EGTA, 120 CsF, 5 NaF, 2 MgCl2, pH = 7.3 with CsOH; External solution 1: 40 NaCl, 120 NMDG, 1 KCl, 0.5 MgCl2, 5 HEPES, 2.7 CaCl2, pH to 7.3 with NaOH, used for NaV1.5 recordings; External solution 2: 150 NaCl, 5 KCl, 2 CaCl2, 1 MgCl2, 10 HEPES, 12 Dextrose, pH 7.3 with NaOH, used for NaV1.7, 1.6, 1.4, and 1.2 recordings.
Whole-cell currents were recorded from cells stably expressing NaV channels using the PatchXpress 7000A automated patch clamp platform (Molecular Devices, LLC; Sunnyvale, CA). A portable air-conditioning unit was installed on the PatchXpress instruments to maintain the temperature of the headstage at 21°C. Cells were voltage clamped at −60 mV for cell detection and sealing. At the start of each recording, a voltage curve and an inactivation curve was run for each cell to determine the voltage at which 50% of the channels reside in the inactivated state (V0.5 inact). […]
NaV1.7, NaV1.6, NaV1.4: Compound potency was measured in a hyperpolarized-state protocol where the holding potential for each cell was set to V0.5inact – 20 mV. […]

In data set [2] the target is T1, Nav1.6. The data set can be described thus: Nav1.6 binding. Details: expressed in transfected cells; host or cells: HEK cells. Particulars: read-out: Nav1.6 bind Ki.
Text: as §1

A short description of data set [3]: Rat plasma protein binding. It is filed as in vitro ADME.
Text: as §1

The target of data set [4] is (Homo sapiens, UniProt Q12809). The experiment in a line: Global Counterscreen MK499 binding.
Text: as §1

The target of a further data set is Nicotinic Acetylcholine. The data set can be described thus: Panlabs selection. The format is binding. From the text:
Supplement KCHL_A_2122309_SM6747.docx, table 1 | column: SSI-5; SSI-4; SSI-1

A further data set concerns the target Iks (Homo sapiens, UniProt P51787). The experiment in a line: Functional Ion Channel Panel Iks. It is filed as biochemical. Particulars: read-out: Iks %inh. The text has this:
(§2) Supplement KCHL_A_2122309_SM6747.docx, table 1 | column: SSI-5; SSI-3; SSI-4; SSI-1

In another data set the test system is phrenic nerve. The experiment in a line: Rat phrenic nerve firing assay. The settings on record: rat in vivo, measured at 30 minutes. The method, then: To determine direct effects on phrenic nerve activity, male CD rats were anesthetized and instrumented as described above for the CV/R assay. In addition, an incision was made in the ventral neck area and the right phrenic nerve identified anatomically and isolated via blunt dissection. The phrenic nerve was placed over a high impedance bipolar hook electrode and the nerve covered with mineral oil to prevent desiccation. Animals were mechanically ventilated via a tracheotomy (~10 mL/kg, 40–70 breaths/min, titrated individually to stabilize phrenic activity) following neuromuscular block (pancuronium 0.5–1 mg/kg, iv) and bilateral vagotomy to better define test agent effects on phrenic nerve activity. Anesthesia was verified repeatedly following pancuronium administration by testing the BP/HR response to noxious stimuli. Spontaneous electrical activity was continuously recorded and then later rectified and averaged to calculate frequency, width, peak height of bursts, and magnitude. Magnitude of the activity was calculated by taking the absolute value of the raw signal and then averaging that signal over 50 ms increments. The resulting average signal was then converted to magnitude by subtracting the […] for each phrenic burst complex. The resulting magnitude values were then averaged over 1 minute increments to result in the graphs shown. Figure S1 in the Supplemental Information illustrates this analytical procedure.
For in vivo CVR and phrenic nerve activity studies, all raw signals were amplified via general purposed biological amplifier (filter settings DC – 3-5 KhZ) then digitized, calibrated and collected at a minimum of 500 Hz (1000 Hz for ECG and 2000 Hz for cardiac electrograms, and 10 KHz for phrenic nerve activity) using Notocord-HEM data acquisition and analysis software. The raw signal was filtered following acquisition with a bandpass filter set to 200–800 Hz). Vehicle (100% dimethylformamdide, DMF) or compound formulated in the vehicle was administered as a 30-minute IV infusion at 0.0167 μL/g body weight/min. Doses were selected to achieve unbound plasma concentrations in range of measured Nav1.6 IC50 values when infused at 0.0167uL/g body weight/min based on measured rat clearance, plasma protein binding and Nav1.6 IC50. Exposure in rats was determined in separate pharmacokinetics experiments where compounds were administered via IV dosing.

Another data set deals with hERG (Homo sapiens, UniProt Q12809). The data set can be described thus: Functional Ion Channel Panel hERG. It is filed as biochemical. The settings on record: read-out: hERG %inh.
Text: as §2
In general terms: hERG is a cardiac potassium channel; its block is linked to QT prolongation.

For the next data set, the target named is T2, NAChR α3β4 (Homo sapiens, UniProt P30926+P32297).
T2 construct: Panlabs
The data set can be described thus: Panlabs selection. The format is binding.

For data set [5], the target named is Transporter, Dopamine DAT (Homo sapiens, UniProt Q01959). The data set can be described thus: Panlabs selection. The format is binding.
Text: as §2

In another data set the target is T3, Adrenergic α1D (Homo sapiens, UniProt P25100).
T3 construct: Panlabs
The experiment in a line: Panlabs selection. It is filed as binding.
Text: as §2

Another data set deals with Transporter, Choline (Homo sapiens, UniProt Q9GZV3). The data set can be described thus: Panlabs selection. It is filed as binding.
Text: as §2

In the next data set the target is T4, Histamine H1 (Homo sapiens, UniProt P35367).
T4 construct: Panlabs
The experiment in a line: Panlabs selection. The format is binding.
Text: as §2

The next data set addresses T5, Melanocortin MC5 (Homo sapiens, UniProt P33032).
T5 construct: Panlabs
The experiment in a line: Panlabs selection. It is filed as binding.
Text: as §2

Another data set has as its target T6, Adrenergic α2B (Homo sapiens, UniProt P18089).
T6 construct: Panlabs
The experiment in a line: Panlabs selection. It is filed as binding.
Text: as §2

For another data set, the target named is T7, Adrenergic α2C (Homo sapiens, UniProt P18825).
T7 construct: Panlabs
The data set can be described thus: Panlabs selection. It is filed as binding.
Text: as §2

T1 sequence (Q9UQD0 whole entry): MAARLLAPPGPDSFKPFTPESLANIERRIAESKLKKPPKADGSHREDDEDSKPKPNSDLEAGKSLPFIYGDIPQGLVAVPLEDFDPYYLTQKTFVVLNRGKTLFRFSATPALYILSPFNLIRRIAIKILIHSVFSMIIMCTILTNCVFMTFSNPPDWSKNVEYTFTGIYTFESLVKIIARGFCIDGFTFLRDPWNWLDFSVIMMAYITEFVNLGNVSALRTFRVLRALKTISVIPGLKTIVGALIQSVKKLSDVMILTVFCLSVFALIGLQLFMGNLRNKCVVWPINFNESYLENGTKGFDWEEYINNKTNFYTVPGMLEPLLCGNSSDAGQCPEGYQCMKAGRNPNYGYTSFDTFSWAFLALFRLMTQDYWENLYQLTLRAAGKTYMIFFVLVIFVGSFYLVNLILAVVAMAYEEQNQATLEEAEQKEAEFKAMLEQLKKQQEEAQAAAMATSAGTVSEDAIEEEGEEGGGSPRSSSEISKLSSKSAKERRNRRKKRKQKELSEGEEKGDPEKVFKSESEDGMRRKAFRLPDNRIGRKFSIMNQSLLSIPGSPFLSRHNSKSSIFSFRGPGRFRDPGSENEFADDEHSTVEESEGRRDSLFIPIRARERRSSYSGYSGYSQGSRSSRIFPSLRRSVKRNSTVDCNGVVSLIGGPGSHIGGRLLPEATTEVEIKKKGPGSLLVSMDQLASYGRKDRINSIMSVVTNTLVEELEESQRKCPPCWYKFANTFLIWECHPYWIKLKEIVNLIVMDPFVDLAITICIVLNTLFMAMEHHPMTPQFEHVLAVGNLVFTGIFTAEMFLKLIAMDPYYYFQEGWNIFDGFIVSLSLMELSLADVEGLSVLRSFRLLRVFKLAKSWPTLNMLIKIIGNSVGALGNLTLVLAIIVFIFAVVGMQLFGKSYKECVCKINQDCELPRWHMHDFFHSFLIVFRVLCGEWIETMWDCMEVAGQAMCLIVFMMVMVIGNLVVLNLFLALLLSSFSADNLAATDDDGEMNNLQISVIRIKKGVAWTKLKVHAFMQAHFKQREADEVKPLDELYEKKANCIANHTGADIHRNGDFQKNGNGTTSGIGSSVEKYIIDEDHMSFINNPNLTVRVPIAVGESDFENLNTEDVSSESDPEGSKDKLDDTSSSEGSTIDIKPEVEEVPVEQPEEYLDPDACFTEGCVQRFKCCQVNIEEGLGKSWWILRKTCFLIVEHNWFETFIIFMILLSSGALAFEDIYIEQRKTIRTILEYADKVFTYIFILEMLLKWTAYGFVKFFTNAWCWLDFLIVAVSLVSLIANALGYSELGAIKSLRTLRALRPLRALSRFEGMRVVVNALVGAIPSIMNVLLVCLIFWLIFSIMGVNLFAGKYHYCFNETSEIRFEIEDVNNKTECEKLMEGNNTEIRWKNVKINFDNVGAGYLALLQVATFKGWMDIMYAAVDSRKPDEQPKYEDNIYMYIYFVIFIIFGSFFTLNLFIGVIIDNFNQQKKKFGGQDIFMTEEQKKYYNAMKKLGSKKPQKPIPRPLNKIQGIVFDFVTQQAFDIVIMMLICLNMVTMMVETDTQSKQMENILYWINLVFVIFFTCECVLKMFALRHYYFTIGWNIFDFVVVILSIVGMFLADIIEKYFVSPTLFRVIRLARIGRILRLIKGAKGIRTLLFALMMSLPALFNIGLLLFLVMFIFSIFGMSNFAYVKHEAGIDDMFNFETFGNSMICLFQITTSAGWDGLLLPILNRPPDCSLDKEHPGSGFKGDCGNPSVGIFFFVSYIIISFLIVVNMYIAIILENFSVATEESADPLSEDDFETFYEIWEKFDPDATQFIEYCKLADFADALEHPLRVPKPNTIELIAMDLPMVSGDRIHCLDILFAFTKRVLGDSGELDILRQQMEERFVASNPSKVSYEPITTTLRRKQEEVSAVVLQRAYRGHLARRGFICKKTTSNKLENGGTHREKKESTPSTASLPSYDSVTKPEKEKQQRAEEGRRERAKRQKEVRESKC
Sequence of (Homo sapiens, UniProt Q12809) (Q12809 whole entry): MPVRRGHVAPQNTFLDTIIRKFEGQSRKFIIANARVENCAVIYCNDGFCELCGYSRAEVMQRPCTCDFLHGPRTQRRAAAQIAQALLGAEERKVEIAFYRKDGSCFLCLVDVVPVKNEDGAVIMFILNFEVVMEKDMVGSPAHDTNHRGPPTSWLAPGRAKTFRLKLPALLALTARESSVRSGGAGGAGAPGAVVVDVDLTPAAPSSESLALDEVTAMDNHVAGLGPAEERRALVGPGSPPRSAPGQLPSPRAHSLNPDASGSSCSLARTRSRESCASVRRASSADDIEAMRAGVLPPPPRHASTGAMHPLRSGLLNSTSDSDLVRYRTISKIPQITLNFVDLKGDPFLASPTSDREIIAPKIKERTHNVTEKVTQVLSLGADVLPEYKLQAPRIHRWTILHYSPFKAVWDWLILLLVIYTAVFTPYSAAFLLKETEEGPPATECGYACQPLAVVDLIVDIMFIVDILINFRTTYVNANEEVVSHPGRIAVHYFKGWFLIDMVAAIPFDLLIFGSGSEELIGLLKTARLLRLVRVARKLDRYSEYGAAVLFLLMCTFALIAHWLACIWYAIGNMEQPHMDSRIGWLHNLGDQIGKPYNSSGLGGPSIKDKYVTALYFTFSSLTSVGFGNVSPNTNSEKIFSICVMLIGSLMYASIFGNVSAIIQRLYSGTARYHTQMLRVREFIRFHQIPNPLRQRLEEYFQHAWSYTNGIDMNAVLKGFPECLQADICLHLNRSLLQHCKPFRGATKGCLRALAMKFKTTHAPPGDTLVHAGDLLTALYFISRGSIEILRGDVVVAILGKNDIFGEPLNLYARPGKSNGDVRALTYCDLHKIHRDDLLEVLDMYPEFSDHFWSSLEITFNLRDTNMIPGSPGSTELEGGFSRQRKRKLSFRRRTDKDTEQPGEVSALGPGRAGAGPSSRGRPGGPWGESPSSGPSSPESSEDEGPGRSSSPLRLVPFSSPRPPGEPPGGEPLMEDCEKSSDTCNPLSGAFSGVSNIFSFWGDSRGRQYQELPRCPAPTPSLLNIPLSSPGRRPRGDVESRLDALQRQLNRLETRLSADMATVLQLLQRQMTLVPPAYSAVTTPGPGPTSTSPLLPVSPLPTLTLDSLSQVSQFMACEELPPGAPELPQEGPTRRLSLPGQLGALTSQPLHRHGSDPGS
Sequence of Transporter, Dopamine DAT (Q01959 whole entry): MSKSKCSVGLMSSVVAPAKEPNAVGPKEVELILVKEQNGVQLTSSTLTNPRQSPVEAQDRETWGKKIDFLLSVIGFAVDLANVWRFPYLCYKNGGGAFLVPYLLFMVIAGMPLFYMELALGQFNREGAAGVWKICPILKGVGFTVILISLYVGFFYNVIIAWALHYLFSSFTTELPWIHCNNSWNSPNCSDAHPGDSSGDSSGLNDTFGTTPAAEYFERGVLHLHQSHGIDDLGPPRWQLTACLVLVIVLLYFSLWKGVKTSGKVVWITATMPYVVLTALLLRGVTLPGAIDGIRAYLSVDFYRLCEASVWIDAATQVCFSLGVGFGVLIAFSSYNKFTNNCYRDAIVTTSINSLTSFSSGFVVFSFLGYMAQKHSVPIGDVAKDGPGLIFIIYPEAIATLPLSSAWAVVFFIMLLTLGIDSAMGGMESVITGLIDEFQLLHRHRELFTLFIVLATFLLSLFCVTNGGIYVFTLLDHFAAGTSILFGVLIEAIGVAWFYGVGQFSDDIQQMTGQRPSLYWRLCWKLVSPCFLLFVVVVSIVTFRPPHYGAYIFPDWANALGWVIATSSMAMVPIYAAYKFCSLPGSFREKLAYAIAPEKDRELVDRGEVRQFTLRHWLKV
T7 sequence (P18825 whole entry): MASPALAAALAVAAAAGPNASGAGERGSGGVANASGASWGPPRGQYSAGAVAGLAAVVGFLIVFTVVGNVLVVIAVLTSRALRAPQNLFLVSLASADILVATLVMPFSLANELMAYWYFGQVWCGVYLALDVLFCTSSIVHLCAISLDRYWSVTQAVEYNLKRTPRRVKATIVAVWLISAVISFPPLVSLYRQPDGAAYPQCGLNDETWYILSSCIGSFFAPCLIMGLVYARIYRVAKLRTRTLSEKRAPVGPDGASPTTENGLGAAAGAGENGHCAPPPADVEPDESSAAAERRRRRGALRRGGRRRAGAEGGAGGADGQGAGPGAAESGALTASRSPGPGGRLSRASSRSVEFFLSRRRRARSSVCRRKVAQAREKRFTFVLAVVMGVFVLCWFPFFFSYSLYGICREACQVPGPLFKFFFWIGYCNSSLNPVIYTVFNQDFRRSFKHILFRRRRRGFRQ
Sequence of Transporter, Choline (Q9GZV3 whole entry): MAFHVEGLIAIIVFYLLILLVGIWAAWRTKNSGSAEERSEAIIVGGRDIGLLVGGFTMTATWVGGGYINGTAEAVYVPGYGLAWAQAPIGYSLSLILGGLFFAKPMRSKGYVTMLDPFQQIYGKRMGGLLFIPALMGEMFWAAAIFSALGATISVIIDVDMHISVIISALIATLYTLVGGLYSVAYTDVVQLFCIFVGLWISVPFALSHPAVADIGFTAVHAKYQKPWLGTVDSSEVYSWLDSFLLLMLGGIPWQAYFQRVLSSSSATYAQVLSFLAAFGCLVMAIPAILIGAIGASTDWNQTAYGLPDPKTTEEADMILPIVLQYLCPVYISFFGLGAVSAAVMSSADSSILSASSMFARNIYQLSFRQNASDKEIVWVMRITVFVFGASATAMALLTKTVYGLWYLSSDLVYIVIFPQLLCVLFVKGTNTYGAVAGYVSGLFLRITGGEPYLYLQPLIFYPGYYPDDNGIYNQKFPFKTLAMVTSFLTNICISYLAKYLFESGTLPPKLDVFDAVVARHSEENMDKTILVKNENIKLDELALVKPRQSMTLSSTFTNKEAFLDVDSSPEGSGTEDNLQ

On to `COc1ccc(CCC(c2cccc3c2CNCC3)n2c(=O)oc3cc(S(=O)(=O)Nc4ncns4)c(F)cc32)cc1` (stereo not drawn) [SSCI-6], for which the values for the IC50 on Cav1.2 and against Nav1.6 [1] were 24 µM and 0.018 to 0.036 µM, respectively. For the same compound, the figures for the inhibition constant (Ki) (on Nav1.6 [2]; in [4]) were 0.08 nM and 17 µM, respectively. Also, in data set [3], the free fraction (fraction unbound) was 0.018.
As to `O=S(=O)(Nc1nccs1)c1cc(Cl)c(NCCCCNC[C@H]2CCCN2)cc1F` [SSCI-1], the Ki was over 10 µM on Nicotinic Acetylcholine; 47.1 nM at Nav1.6 [2]; over 10 µM at NAChR α3β4; over 54 µM in [4]; 980 nM in data set [5]; over 10 µM at Adrenergic α1D. Also, the Ki was 3.19 µM on Transporter, Choline; over 10 µM on Histamine H1; over 10 µM at Melanocortin MC5; over 10 µM at Adrenergic α2B; over 10 µM at Adrenergic α2C. Also, the half-inhibitory concentration (IC50) on Cav1.2 was over 30 µM; on Nav1.6 [1], 18.2 µM. Moreover, the inhibition at 30 µM on Iks is -1%; at hERG, 22%. The “percent decrease in the magnitude of the phrenic nerve signal” value in the data set on phrenic nerve is “did not show any decrease”. In data set [3], this compound showed a free fraction (fraction unbound) of 0.067.
On to `N#Cc1cc(S(=O)(=O)Nc2cscn2)ccc1Oc1ccc(Cl)cc1-c1ccnn1C1CNC1` [SSCI-5], for which the “percent decrease in the magnitude of the phrenic nerve signal” value with phrenic nerve is listed as 76.1%.
Still for that read-out and setting: the figure for `C[C@H](c1cccc2c1CNCC2)n1c(=O)oc2cc(S(=O)(=O)Nc3ncns3)ccc21` [SSCI-3] is 74.2%.
